Assay results reported in publication PMC6150735, “Molecular Docking-Based Design and Development of a Highly Selective Probe Substrate for UDP-glucuronosyltransferase 1A10” (Molecular Pharmaceutics, 2018).

Target: T1, UGT1A10 mutant 1A10-H210M (Homo sapiens, UniProt Q9HAW8, H210M)
T1 construct: His-tag; made in house; host or cells: baculovirus-infected SF9 insect cells
T1 sequence (Q9HAW8 26-530 H210M): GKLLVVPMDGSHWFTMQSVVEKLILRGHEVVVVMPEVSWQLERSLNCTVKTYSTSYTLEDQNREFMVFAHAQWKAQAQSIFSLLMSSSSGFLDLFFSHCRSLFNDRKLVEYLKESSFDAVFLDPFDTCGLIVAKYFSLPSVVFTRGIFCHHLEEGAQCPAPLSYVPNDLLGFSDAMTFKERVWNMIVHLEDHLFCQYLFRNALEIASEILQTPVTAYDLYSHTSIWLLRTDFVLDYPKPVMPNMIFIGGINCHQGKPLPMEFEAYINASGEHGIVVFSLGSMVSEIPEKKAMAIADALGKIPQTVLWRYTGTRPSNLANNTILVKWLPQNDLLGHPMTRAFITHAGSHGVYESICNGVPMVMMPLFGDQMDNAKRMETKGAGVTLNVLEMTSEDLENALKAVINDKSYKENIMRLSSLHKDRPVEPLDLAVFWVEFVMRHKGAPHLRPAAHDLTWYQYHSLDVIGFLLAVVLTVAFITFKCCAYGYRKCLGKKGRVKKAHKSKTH
Experiment: Glucuronidation kinetics by UGT1A10 mutant 1A10-H210M (fluorescence decrease, 96-well plate)
Assay type: biochemical
Conditions: mutant versus wild-type UGT1A10
Description: The UGT1A10 mutant 1A10-H210 M was prepared according to the QuikChange methodology, using the cloned UGT1A10 in pFastBac[42] as a template and the following two oligonucleotides:
The entire coding sequence of UGT1A10 in the mutant clone was sequenced, and subsequently, recombinant baculovirus was prepared and used to express the mutant enzyme in baculovirus-infected SF9 insect cells.
The incubation mixtures for glucuronidation assays contained 100 mM Tris-HCl buffer pH 7.4, 2.5 mM MgCl2, 0.5 mM UDPGA, recombinant UGT, or microsomes as the enzyme source and 0–15 μM of the test aglycone substrate. When the incubation mixtures contained microsomes, alamethicin was used at a final concentration of 12.5 μg/mL, but it was not included in the recombinant enzyme assays.[43] In the first experiments three negative control samples were tested, namely (i) without the substrate 7-hydroxycoumarin derivative, (ii) without the cofactor UDPGA, or (iii) without the enzyme source. In subsequent experiments, the control samples lacked the enzyme source since it gave the highest fluorescence background. […] Fluorescence spectra (excitation 200–420 nm; emission 400–600 nm) or fluorescence decrease at 390 nm excitation and 460 nm emission, were measured in these preliminary experiments, using a Shimadzu RF-5000 spectrophotofluorometer.
Most of the glucuronidation assays were carried out in 96 multiwell plate format, and incubations were carried out in 100 μL and at 37 °C, in the presence of Tris–HCl buffer pH 7.4, UDPGA, and the tested 7-hydroxycoumarin derivative, at the indicated concentrations. Fluorescence decline in the multiwell plate experiments was monitored every other minute, for 40 min, using an excitation filter at 405 nm and detection at 460 nm, in a Victor2 1420 Multilabel counter (PerkinElmer, Life Sciences, Turku, Finland). The fluorescence values were transformed into molarity using the aglycone substrates for making the respective standard curves. […] Enzyme catalyzed glucuronidation rate was calculated by subtracting the blank value from the full reaction value. […]

How did the “Change of Km by the H210M mutation (in words)” value turn out when O=c1oc2cc(O)ccc2cc1-n1cncn1 [Compound 6, 7-Hydroxy-3-(1H-1,2,4-triazol-1-yl)-2H-chromen-2-one] was run?
Its value is “considerably increased”.
